4 compounds from article PMC4592898, “Biochemical Characterisation of Phage Pseudomurein Endoisopeptidases PeiW and PeiP Using Synthetic Peptides” (Archaea, 2015) can be followed below.

For one assay, the target named is T1, PeiW (Methanothermobacter phage psiM100, UniProt Q7LYX0).
T1 construct: N-terminal His-tag kept, pET151D, E. coli BL21-Rosetta 2; 317 residues and 37,219 Da with tag; monomer
The assay is described as follows: inhibition of EγApNA hydrolysis, […] nm, […] min preincubation. It is filed as biochemical. The following applies: for inhibition at 1000 µM: read-out: % inhibition at 1 mM.

The target of another assay is T2, PeiP (Methanobacterium phage psiM2, UniProt Q77WJ4).
T2 construct: N-terminal His-tag kept, pET151D, E. coli BL21-Rosetta 2; 338 residues and 39,537 Da with tag; monomer
T2 sequence (Q77WJ4 whole entry): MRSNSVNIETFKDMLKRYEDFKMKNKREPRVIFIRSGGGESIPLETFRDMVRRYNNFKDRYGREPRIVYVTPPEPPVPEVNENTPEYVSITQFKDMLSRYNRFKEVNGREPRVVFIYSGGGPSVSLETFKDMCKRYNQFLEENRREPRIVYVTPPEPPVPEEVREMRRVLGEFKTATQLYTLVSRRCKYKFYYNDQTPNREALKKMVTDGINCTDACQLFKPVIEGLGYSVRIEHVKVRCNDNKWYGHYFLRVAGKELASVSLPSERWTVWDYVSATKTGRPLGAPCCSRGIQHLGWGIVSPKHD
Described as above. The format is biochemical. Particulars: read-out: % inhibition at 1 mM.

Molecules are shown by their SMILES.

T1 sequence (Q7LYX0 whole entry): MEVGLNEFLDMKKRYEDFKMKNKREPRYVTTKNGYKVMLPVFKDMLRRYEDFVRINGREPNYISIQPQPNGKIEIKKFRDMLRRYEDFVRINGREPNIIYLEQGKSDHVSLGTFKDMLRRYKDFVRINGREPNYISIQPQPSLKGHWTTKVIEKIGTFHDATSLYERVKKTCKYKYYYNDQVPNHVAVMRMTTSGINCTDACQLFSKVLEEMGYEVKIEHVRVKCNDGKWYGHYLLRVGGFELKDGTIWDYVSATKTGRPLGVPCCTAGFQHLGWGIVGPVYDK

In general, % inhibition refers to how much of the control response was suppressed. For `O=S(=O)(F)Cc1ccccc1` [PMSF], the “% inhibition at 1 mM” value on PeiW (60 °C, pH 7.85, 10 mM CaCl2, 10 mM TCEP) turned out to be 10%.

What is called inhibition is the relative decrease from the control value, in per cent. Take `NCCSSCCN` [Cystamine]: the inhibition at 1000 µM at PeiP and at PeiW was 100% in each case.

On to `CC(C)C[C@H](NC(=O)[C@@H]1O[C@H]1C(=O)O)C(=O)NCCCCNC(=N)N` [E64], for which the inhibition at 1000 µM is 30% at PeiP and 10% at PeiW.

Regarding `CN(C)c1cccc2c(S(=O)(=O)NCCCCCN)cccc12` [Dansylcadaverine], the results for the inhibition at 1000 µM at PeiP and at PeiW were 50% and 60%, respectively.
